According to patent publication US10836763B2, “5 to 7 membered heterocyclic amides as JAK inhibitors” (priority 2018, dated 2020):
Read-outs that look alike come from different tables or passages of the source.

Assays:
JAK1 = JAK1 (Homo sapiens (Human), UniProt P23458); assay: Biochemical JAK kinase assay (LanthaScreen), JAK1
Description: (§1) Assay 1: Biochemical JAK Kinase Assays
(§2) A panel of four LanthaScreen JAK biochemical assays (JAK1, 2, 3 and Tyk2) were carried in a common kinase reaction buffer (50 mM HEPES, pH 7.5, 0.01% Brij-35, 10 mM MgCl2, and 1 mM EGTA). Recombinant GST-tagged JAK enzymes and a GFP-tagged STAT1 peptide substrate were obtained from Life Technologies.
(§3) Serially diluted compounds were pre-incubated with each of the four JAK enzymes and the substrate in white 384-well microplates (Corning) at ambient temperature for 1 h. ATP was subsequently added to initiate the kinase reactions in 10 μL total volume, with 1% DMSO. […] Kinase reactions were allowed to proceed for 1 hour at ambient temperature before a 10 μL preparation of EDTA (10 mM final concentration) and Tb-anti-pSTAT1 (pTyr701) antibody (Life Technologies, 2 nM final concentration) in TR-FRET dilution buffer (Life Technologies) was added. The plates were allowed to incubate at ambient temperature for 1 h before being read on the EnVision reader (Perkin Elmer). Emission ratio signals (520 nm/495 nm) were recorded and utilized to calculate the percent inhibition values based on DMSO and background controls.
(§4) For dose-response analysis, percent inhibition data were plotted vs. compound concentrations, and IC50 values were determined from a 4-parameter robust fit model with the Prism software (GraphPad Software). Results were expressed as pIC50 (negative logarithm of IC50) and subsequently converted to pKi (negative logarithm of dissociation constant, Ki) using the Cheng-Prusoff equation.

JAK2 = JAK2 (Homo sapiens (Human), UniProt O60674); assay: Biochemical JAK kinase assay (LanthaScreen), JAK2
Description: as §1, §2, §3, §4

JAK3 = JAK3 (Homo sapiens (Human), UniProt P52333); type: biochemical
Description: as §1, §2, §3, §4

Tyk2 = Tyk2 (Homo sapiens (Human), UniProt P29597); assay: Biochemical JAK kinase assay (LanthaScreen), Tyk2
Description: as §1, §2, §3, §4

[1] = system: TSLP-evoked TARC release in human peripheral blood mononuclear cells; assay: Inhibition of TSLP-evoked TARC release in human peripheral blood mononuclear cells; type: cell-based; conditions: read-out: pIC50 ± st. dev., inhibition of TSLP-evoked TARC release (converted)
Excerpt: Assay 4: Inhibition of TSLP-Evoked TARC Release in Human Peripheral Blood Mononuclear Cells
Thymic stromal lymphopoietin (TSLP) and thymus and activation-regulated chemokine (TARC) are overexpressed in asthmatic airways, and correlate with disease severity. In the lungs, TSLP may be released by bronchial epithelial cells in response to allergens and viral infections. TSLP signals through an IL-7Rα/TSLPR heterodimer found in a broad range of tissues and cell types, including epithelial cells, endothelial cells, neutrophils, macrophages, and mast cells. The binding of TSLP to its receptor induces a conformational change that activates JAK1 and JAK2 to phosphorylate various transcription factors, including STAT3 and STAT5. In immune cells, this triggers a cascade of intracellular events that result in cell proliferation, anti-apoptosis, dendritic cell migration, and production of Th2 cytokines and chemokines. In peripheral blood mononuclear cells (PBMC), TSLP has a proinflammatory effect by activating myeloid dendritic cells to attract and stimulate T cells, a process mediated by the chemoattractant TARC.
The potencies of the test compounds were measured for inhibition of TARC release.
PBMC aliquots (previously isolated from whole blood and frozen in aliquots at −80° C.) from 3 to 5 donors were thawed at 37° C. and added dropwise to 40 mL pre-warmed, sterile-filtered, complete RPMI media in 50 mL Falcon tubes. Cells were pelleted and resuspended in complete media at 2.24×10^6 cells/mL. Cells were seeded at […] (190,000 cells) per well in a tissue culture treated 96-well flat bottom microplate. Cells were allowed to rest for 1 hour at 37° C. with 5% CO2.
Compounds were received as 10 mM stock solutions in DMSO. 3.7-fold serial dilutions were performed to generate 9 concentrations of test compound in DMSO at 300× the final assay test concentration. […] After the 1 hour rest period, 95 µL of 2× compound was added to each well of PBMC, for a final assay concentration range of 33.33 μM to […]. 95 μL of 0.2% DMSO in complete media was added to the untreated control wells. Cells were pre-treated with compound for 1 hour at 37° C. with 5% CO2 prior to stimulation.
Recombinant human TSLP protein was reconstituted at 10 μg/mL in sterile DPBS with 0.1% BSA and stored in aliquots at −20° C. Immediately prior to use, an aliquot was thawed and prepared at 20× the final assay concentration in complete media. 10 μL of 20×TSLP was added to each well of PBMC, for a final assay concentration of 10 ng/mL. 10 μL of complete media was added to the unstimulated control wells. Cells were stimulated in the presence of compound for 48 hours at 37° C. with 5% CO2.
Following stimulation, the cell culture supernatants were harvested and TARC levels were detected by enzyme-linked immunosorbent assay (ELISA), using Human CCL17/TARC Quantikine ELISA Kit (R&D Systems # DDN00) according to the manufacturer's instructions.
For dose response analysis, the log [test compound (M)] was plotted versus the percent response values for each donor, and IC50 values were determined using a nonlinear regression analysis with GraphPad Prism Software using the 4-parameter sigmoidal dose-response algorithm with variable slope. Data are expressed as mean pIC50 (negative decadic logarithm IC50) values calculated from pIC50 values of individual donors and rounded to one decimal place.

Lung S9 metabolism = type: in vitro ADME, human; conditions: for Compound Remaining at 60 min (%) / microsomal CLint at 1 µM: human lung S9, 1 μM compound, 1 mg/mL S9 protein, NADPH and PAPS; for microsomal CLint at 1 µM: lung S9 fraction, pH 7.4, read-out: Clearance; for Sulfate Appearance: qualitative, O-sulfate metabolite peak in human lung S9
Description: Assay 5: Lung S9 Metabolism […] Lung S9 fractions from human (lot 1410245) were purchased from XenoTech LLC (Lenexa, Kans.). NADPH (Sigma Aldrich, N1630) and 3-phosphoadenosine 5-phosphosulfate (PAPS) (Sigma Aldrich, A1651) were purchased from Sigma Aldrich (St. Louis, Mo.). Acetonitrile and water were obtained from VWR (Radnor, Pa.) and were of HPLC grade or better. Raloxifene and formic acid was purchased from Sigma Aldrich (St. Louis, Mo.). Lung S9 incubations were performed in a water bath at 37° C. in a 96-well polypropylene plate. […] All samples were centrifuged at 2250 g for 10 minutes at 5° C. Supernatant (50 μL) was taken from the centrifuged samples and diluted into 100 μL HPLC water containing internal standard. […] Mobile Phase A consisted of Water+0.2% formic acid and Mobile Phase B consisted of acetonitrile+0.2% formic acid. Peak integration was accomplished using Gubbs GMSU software (Gubbs Inc., Alpharetta, Ga.). For each sample, peak area ratios were calculated by dividing the analyte peak area by the internal standard peak area. […] Determination of sulfate metabolite formation was made qualitatively by observation of early-eluting peak in the parent ion channel which, based on historical internal data, corresponded to the O-sulfate metabolite of each parent compound.

[2] = ATP at Km 25 μM, pIC50 converted with Cheng-Prusoff
[3] = ATP at Km 3 μM, pIC50 converted with Cheng-Prusoff
[4] = ATP at Km 10 μM, pIC50 converted with Cheng-Prusoff
[5] = PBMC from 3 to 5 donors, TSLP 10 ng/mL, 48 hours, TARC ELISA

Chain of Tyk2 (P29597 whole entry): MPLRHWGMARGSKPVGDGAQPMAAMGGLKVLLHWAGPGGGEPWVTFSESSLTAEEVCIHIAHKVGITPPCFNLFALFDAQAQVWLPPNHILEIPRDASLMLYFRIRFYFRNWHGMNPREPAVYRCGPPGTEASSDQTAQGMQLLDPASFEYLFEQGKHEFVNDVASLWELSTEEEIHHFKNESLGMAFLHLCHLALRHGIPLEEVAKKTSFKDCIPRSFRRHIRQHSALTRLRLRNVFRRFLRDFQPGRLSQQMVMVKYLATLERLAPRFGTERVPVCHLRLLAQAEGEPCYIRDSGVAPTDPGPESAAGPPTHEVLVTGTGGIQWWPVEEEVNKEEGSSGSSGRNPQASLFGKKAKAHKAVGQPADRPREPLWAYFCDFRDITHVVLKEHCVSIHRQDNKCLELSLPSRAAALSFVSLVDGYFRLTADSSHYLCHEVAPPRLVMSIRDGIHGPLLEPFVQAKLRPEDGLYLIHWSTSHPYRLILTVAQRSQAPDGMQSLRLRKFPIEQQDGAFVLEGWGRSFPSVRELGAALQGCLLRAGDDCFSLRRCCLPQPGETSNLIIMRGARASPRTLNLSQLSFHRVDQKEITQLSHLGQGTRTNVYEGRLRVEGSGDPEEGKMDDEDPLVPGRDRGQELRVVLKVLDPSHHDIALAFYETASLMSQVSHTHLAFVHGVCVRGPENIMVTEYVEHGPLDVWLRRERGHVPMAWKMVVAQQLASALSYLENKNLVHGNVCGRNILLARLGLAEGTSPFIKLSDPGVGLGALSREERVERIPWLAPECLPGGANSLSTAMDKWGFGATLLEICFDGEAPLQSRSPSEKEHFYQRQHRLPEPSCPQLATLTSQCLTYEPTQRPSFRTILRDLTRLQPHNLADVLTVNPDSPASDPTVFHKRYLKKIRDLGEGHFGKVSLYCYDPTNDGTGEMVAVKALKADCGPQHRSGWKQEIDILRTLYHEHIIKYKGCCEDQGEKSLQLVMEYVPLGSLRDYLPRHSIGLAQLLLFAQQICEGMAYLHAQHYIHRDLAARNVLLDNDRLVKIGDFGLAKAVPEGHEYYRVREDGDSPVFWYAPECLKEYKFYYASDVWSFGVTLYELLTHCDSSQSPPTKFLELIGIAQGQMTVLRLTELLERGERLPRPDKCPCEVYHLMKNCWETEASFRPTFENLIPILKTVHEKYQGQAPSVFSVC
Chain of JAK2 (O60674 whole entry): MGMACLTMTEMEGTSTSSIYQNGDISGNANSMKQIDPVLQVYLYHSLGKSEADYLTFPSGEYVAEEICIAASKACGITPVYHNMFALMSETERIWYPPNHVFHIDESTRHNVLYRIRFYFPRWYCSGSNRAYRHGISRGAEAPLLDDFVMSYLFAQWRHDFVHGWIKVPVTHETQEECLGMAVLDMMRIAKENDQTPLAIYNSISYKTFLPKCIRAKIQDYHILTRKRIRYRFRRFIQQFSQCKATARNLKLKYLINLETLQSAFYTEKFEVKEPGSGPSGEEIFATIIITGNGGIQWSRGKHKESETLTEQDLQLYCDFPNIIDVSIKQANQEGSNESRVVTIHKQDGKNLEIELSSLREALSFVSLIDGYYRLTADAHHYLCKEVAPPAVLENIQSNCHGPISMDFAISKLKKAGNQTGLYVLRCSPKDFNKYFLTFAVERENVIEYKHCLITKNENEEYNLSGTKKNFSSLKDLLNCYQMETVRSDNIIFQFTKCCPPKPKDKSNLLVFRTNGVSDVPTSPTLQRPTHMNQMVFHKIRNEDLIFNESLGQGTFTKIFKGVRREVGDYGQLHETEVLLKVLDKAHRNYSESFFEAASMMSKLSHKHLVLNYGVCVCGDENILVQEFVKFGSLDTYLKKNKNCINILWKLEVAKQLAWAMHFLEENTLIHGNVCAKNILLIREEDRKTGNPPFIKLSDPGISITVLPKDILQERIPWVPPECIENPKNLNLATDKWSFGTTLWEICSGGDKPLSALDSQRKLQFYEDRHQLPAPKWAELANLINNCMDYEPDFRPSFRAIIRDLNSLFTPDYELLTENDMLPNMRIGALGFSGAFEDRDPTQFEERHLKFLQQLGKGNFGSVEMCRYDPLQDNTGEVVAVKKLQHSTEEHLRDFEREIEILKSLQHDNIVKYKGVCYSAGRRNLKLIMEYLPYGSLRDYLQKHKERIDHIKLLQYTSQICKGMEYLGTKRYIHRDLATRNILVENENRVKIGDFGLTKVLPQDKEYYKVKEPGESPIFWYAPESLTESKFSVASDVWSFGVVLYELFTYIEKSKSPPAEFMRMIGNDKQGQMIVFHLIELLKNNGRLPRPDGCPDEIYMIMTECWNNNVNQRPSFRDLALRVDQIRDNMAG
Chain of JAK3 (P52333 whole entry): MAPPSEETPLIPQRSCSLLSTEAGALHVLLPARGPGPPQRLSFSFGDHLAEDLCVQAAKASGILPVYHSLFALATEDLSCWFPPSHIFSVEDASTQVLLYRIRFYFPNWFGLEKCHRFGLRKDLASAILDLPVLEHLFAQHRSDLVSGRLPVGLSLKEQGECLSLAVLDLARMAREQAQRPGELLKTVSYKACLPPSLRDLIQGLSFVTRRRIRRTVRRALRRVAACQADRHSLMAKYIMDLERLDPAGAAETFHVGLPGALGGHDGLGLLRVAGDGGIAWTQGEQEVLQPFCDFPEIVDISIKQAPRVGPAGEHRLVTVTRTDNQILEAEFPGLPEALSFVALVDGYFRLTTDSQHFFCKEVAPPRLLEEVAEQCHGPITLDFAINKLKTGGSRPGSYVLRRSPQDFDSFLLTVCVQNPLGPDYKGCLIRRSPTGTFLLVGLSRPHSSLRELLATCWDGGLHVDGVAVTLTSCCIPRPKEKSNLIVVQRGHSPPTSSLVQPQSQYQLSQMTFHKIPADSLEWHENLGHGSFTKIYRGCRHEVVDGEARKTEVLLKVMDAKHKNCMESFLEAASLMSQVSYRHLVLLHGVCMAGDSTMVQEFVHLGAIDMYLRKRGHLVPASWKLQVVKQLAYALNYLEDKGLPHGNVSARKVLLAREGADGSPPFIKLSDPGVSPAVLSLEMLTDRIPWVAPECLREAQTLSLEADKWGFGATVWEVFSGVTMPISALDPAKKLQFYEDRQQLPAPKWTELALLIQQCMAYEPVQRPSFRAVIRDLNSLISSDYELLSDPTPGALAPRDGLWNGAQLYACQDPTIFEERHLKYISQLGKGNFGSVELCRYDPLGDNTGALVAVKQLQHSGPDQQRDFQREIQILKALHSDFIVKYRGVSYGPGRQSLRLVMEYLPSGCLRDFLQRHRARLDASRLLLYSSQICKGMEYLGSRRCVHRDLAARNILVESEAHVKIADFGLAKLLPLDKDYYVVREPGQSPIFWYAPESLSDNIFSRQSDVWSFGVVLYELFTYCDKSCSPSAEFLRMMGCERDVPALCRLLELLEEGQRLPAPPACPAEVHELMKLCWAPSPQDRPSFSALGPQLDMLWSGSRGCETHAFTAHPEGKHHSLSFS
Chain of JAK1 (P23458 whole entry): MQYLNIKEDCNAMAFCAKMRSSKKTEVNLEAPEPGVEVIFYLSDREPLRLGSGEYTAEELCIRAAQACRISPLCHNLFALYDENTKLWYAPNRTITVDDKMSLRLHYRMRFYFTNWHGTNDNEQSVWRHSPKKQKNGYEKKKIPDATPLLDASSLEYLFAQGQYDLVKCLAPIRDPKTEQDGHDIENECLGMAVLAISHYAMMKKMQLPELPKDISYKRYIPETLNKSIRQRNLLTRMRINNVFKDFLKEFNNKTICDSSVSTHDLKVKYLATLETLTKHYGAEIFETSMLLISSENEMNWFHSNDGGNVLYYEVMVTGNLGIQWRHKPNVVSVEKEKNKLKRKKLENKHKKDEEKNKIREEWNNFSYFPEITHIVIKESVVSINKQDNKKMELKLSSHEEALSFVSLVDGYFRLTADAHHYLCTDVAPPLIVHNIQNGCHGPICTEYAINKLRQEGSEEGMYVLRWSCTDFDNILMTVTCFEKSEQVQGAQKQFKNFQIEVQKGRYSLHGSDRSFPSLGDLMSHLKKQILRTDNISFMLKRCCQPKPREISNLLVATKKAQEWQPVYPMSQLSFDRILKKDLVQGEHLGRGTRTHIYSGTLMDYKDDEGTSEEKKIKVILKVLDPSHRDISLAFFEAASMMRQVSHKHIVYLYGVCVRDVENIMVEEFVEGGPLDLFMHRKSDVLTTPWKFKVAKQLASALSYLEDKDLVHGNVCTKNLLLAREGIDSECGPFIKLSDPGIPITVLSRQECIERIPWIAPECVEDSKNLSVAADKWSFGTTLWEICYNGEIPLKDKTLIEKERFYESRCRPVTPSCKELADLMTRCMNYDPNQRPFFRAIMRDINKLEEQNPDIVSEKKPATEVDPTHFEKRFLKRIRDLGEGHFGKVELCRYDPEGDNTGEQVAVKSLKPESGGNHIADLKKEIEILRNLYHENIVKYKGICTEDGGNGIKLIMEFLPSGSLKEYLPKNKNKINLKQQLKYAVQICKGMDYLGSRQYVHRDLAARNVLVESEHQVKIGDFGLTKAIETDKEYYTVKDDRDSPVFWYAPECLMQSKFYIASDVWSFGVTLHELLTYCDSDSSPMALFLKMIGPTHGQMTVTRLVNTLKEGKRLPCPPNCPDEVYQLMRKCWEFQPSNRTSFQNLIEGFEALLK

SMILES	JAK1 pKi (JAK1)	JAK2 pKi (JAK2)	JAK3 PKi (JAK3)	Tyk2 pKi (Tyk2)	IC50 ([1]; PBMC, 48 h)	Compound Remaining at 60 min (%) (Lung S9 metabolism)	microsomal CLint at 1 µM (Lung S9 metabolism)	Sulfate Appearance (Lung S9 metabolism)	JAK1 pKi (JAK1; [2])	JAK2 pKi (JAK2; [3])	Tyk2 pKi (Tyk2; [4])	IC50 [1, 5]	JAK3 PKi (JAK3; ATP at Km 1.6 μM, pIC50 converted with Cheng-Prusoff)
CCc1cc(O)ccc1-c1ccc2c(-c3nc4c([nH]3)CN(C(C)C)[C@H](C(=O)N3CC[C@H](N(C)C)C3)C4)n[nH]c2c1 [Compound 6, ((S)-3-(dimethylamino)pyrrolidin-1-yl)((S)-2-(6-(2-ethyl-4-hydroxyphenyl)-1H-indazol-3-yl)-5-isopropyl-4,5,6,7-tetrahydro-3H-imidazo[4,5-c]pyridin-6-yl)methanone]	10.2	10.4	10.0	9.0	158 nM	82%	3.4 µL/min/mg	Yes					
CCCN1Cc2[nH]c(-c3n[nH]c4cc(-c5cc(F)c(O)cc5CC)ccc34)nc2C[C@H]1C(=O)N1CCN(CCO)CC1 [Compound C-1, (S)-(2-(6-(2-ethyl-5-fluoro-4-hydroxyphenyl)-1H-indazol-3-yl)-5-propyl-4,5,6,7-tetrahydro-3H-imidazo[4,5-c]pyridin-6-yl)(4-(2-hydroxyethyl)piperazin-1-yl)methanone, reference compound]			9.7			29%	20.8 µL/min/mg	Yes	10.2	10.5	9.1	100 nM	
CCCN1Cc2[nH]c(-c3n[nH]c4cc(-c5ccc(O)cc5CC)ccc34)nc2C[C@H]1C(=O)N1CCN(CCO)CC1 [Compound 1, (S)-(2-(6-(2-ethyl-4-hydroxyphenyl)-1H-indazol-3-yl)-5-propyl-4,5,6,7-tetrahydro-3H-imidazo[4,5-c]pyridin-6-yl)(4-(2-hydroxyethyl)piperazin-1-yl)methanone]						78%	4.2 µL/min/mg	Yes	10.2	10.3	9.0	79.4 nM	9.8
